Assay results: US20170003277A1 (priority 2015, published 2017)

Assays:
[1] = tested on: THP-1 human monocyte cell line; assay: Pathway enrichment (DAVID) in THP-1 study: Copaxone vs mannitol and Probioglat vs GA; type: cell-based; conditions: top upregulated genes, Copaxone vs mannitol, 6 hours
[2] = tested on: THP-1 human monocyte cell line; assay: Microarray gene expression in THP-1 cells, Polimunol vs Copaxone, 6 hours (Example 9); type: cell-based
From the text: Based on previous power calculations (using the R package ssize.fdr), to detect differentially-expressed genes with a fold-change between treatments of as low as 1.3 with 80% power the experiment was designed to include six replicates of each condition. The order of sample processing was randomized with respect to treatment in order to avoid creating confounding batch effects.
RNA was extracted and expression profiled genome-wide using the Affymetrix U133 Plus 2.0 chip. Three batches of Copaxone® and one batch of Polimunol were comparatively tested in six replicates each. RNA processing was performed by Expression Analysis (NC, USA).
Differentially-expressed probesets were identified across conditions using linear models for microarray data (LIMMA). For comparing Copaxone® (“GA”) and purported generic, comparisons were corrected for mannitol control (i.e., [GA vs mannitol] was compared to [purported generic vs mannitol]). Probesets were filtered by calls of presence on the chip for the relevant samples in the comparison (to be considered present at a given timepoint, a probeset was required to have on average a call of present or marginal across the relevant samples at that timepoint). Probesets were mapped to genes using the U133 Plus 2.0 chip annotation from Affymetrix.

## glatiramer acetate [Copaxone®]
[1]
  Fold Enrichment: GO: 0010033~response to organic substance: 2.03
  Fold Enrichment: GO: 0016020~membrane: 1.538
  Fold Enrichment: GO: 0016021~integral to membrane: 1.676
  Fold Enrichment: GO: 0016477~cell migration: 3.203
  Fold Enrichment: GO: 0016502~nucleotide receptor activity: 12.55
  Fold Enrichment: GO: 0019955~cytokine binding: 6.971
  Fold Enrichment: GO: 0022610~biological adhesion: 2.94
  Fold Enrichment: GO: 0030247~polysaccharide binding: 5.244
  Fold Enrichment: GO: 0030574~collagen cataboltc process: 20.7
  Fold Enrichment: GO: 0031012~extracellular matrix: 5.017
  Fold Enrichment: GO: 0031224~intrinsic to membrane: 1.684
  Fold Enrichment: GO: 0031226~intrinsic to plasma membrane: 3.268
  Fold Enrichment: GO: 0031347~regulation of defense response: 5.519
  Fold Enrichment: GO: 0031349~positive regulation of defense response: 6.758
  Fold Enrichment: GO: 0031960~response to corticosteroid stimulus: 6.623
  Fold Enrichment: GO: 0032101~regulation of response to external stimulus: 6.288
  Fold Enrichment: GO: 0032496~response to lipopolysaccharide: 5.682
  Fold Enrichment: GO: 0032502~developmental process: 1.643
  Fold Enrichment: GO: 0032879~regulation of localization: 2.359
  Fold Enrichment: GO: 0040011~locomotion: 3.21
  Fold Enrichment: GO: 0042221~response to chemical stimulus: 1.879
  Fold Enrichment: GO: 0042330~taxis: 4.651
  Fold Enrichment: GO: 0044243~multicellular organismal catabolic process: 20.7
  Fold Enrichment: GO: 0044421~extracellular region part: 3.61
  Fold Enrichment: GO: 0044425~membrane part: 1.539
  Fold Enrichment: GO: 0044459~plasma membrane part: 2.404
  Fold Enrichment: GO: 0045028~purinergic nudeotide receptor activity, G-protein coupled: 13.87
  Fold Enrichment: GO: 0045595~regulation of cell differentiation: 2.517
  Fold Enrichment: GO: 0046903~secretion: 3.164
  Fold Enrichment: GO: 0048513~organ development: 1.846
  Fold Enrichment: GO: 0048514~blood vessel morphogenesis: 3.398
  Fold Enrichment: GO: 0048518~positive regulation of biological process: 1.559
  Fold Enrichment: GO: 0048519~negative regulation of biological process: 1.629
  Fold Enrichment: GO: 0048545~response to steroid hormone stimulus: 4.216
  Fold Enrichment: GO: 0048583~regulation of response to stimulus: 3.613
  Fold Enrichment: GO: 0048584~positive regulation of response to stimulus: 3.79
  Fold Enrichment: GO: 0048731~system development: 1.918
  Fold Enrichment: GO: 0048856~anatomical structure development: 1.792
  Fold Enrichment: GO: 0048869~cellular developments process: 1.736
  Fold Enrichment: GO: 0048870~cell motility: 2.99
  Fold Enrichment: GO: 0050727~regulation of inflammatory response: 8.87
  Fold Enrichment: GO: 0050729~positive regulation of inflammatory response: 11.5
  Fold Enrichment: GO: 0050776~regulation of immune response: 4.293
  Fold Enrichment: GO: 0050793~regulation of developmental process: 3.161
  Fold Enrichment: GO: 0050864~regulation of B cell activation: 8.565
  Fold Enrichment: GO: 0050865~regulation of cell activation: 4.296
  Fold Enrichment: GO: 0050867~positive regulation of cell activation: 4.664
  Fold Enrichment: GO: 0050896~response to stimulus: 1.852
  Fold Enrichment: GO: 0051239~regulation of multicellular organismal process: 2.792
  Fold Enrichment: GO: 0051241~negative regulation of multicellular organismal: 4.902
  Fold Enrichment: GO: 0051270~regulation of cell motion: 3.643
  Fold Enrichment: GO: 0051384~response to glucocorticoid stimulus: 7.046
  Fold Enrichment: GO: 0051674~localization of cell: 2.99
  Fold Enrichment: GO: 0051704~multi-organism process: 2.223
  Fold Enrichment: GO: 0051707~response to other organism: 4.426
  Fold Enrichment: GO: 0060089~molecular transducer activity: 2.537
  Fold Enrichment: GO: 0065007~biological regulation: 1.236
  Fold Enrichment: GO: 0065008~regulation of biological quality: 2.067
  Fold Enrichment: GO: 0080134~regulation of response to stress: 3.7
  Fold Enrichment: GO: 00322501~multicellular organismal process: 1.77
  Fold Enrichment: GO: 00550878~regulation of body fluid levels: 4.87
  Fold Enrichment: hsa04060:Cytokine-cytokine receptor interaction: 3.911
[2]; adjusted p<2.8e-14
  IL10RA expression relative to mannitol: significantly upregulated
[2]; adjusted p<2.8e-10
  IL1RN expression relative to mannitol: significantly upregulated
[2]; probeset called absent, p<0.029
  IL10 expression relative to mannitol: nominally upregulated
